Results from patent publication US9868935B2, “Composition and method of stem cells for preservation of cardiac tissue” (CRIOESTAMINAL, SAÚDE E TECNOLOGIA, SA., priority 2012, dated 2018).

Assays:
[1] = test system: CD34+ cells; assay: Cytokine secretion by CD34+ cells (Bio-Plex cytokine bead array); assay type: cell-based, human; settings: LPA 100 μM; hypoxia, serum free, 24 h
Protocol: In an embodiment, cell culture supernatants were evaluated for the presence and concentrations of cytokines using a Bio-Plex Pro Human Cytokine 17-Plex Panel Assay (preferably, Bio-Rad, Hercules, Calif., USA), according to manufacturer's instructions, in a Bio-Plex 200 System (Bio-Rad, www.bio-rad.com). The human Group I 17-Plex Panel consisted of the following analytes: interleukin-1β (IL-1β), IL-2, IL-4, IL-5, IL-6, IL-7, IL-8; IL-10, IL-12(p70), IL-13, IL-17, granulocyte colony-stimulating factor (G-CSF), granulocyte/macrophage colony-stimulating factor (GM-CSF), interferon-γ (IFN-γ), monocyte chemotactic protein (monocyte chemotactic activating factor [MCP-1 (MCAF)], macrophage inflammatory protein-β (MIP-1 β) and tumor necrosis factor-α (TNF-α). Supernatant media samples were collected, centrifuged to remove precipitates and frozen. A standard range of 0.2 to 3,200 pg/mL was used. Samples and controls were run in triplicate, standards and blanks in duplicate.
To determine the effect of LPA in the release of signaling cytokines and growth factors by CD34+ cells, was used a cytokine bead array. The cells were incubated in serum free medium X-Vivo for 24 h under normoxia or hypoxia conditions, either in the presence or absence of LPA (100 μM). Untreated CD34+ cells in normoxia express high levels (>100 pg/mL) of IL-8 and MIP-1b, medium levels (between 100 and 1 pg/mL) of IL-6, TNF-α and GM-CSF, and low levels (<1 pg/mL) of IL-1β, IL-4 and IL-17 (FIG. 5C).

[2] = test system: CD34+ cells; assay: Antagonist pretreatment and LPA-induced CD34+ cell survival in hypoxia (Annexin V/PI FACS); assay type: cell-based, human; settings: LPA 100 μM alone (+LPA, no antagonist); hypoxia 24 h
Protocol: FIG. 5—LPA induces CD34+ cell survival mainly through peroxisome proliferator-activator receptor (PPAR). Cells were cultured in serum free medium with LPA. Cells were pretreated with Rho kinase inhibitor (Y-2762, 50 μM), mitogen-activated protein kinase (MAPK) inhibitor (PD98059, 60 μM), LPA1- and LPA3-specific inhibitor (Ki16425, 10 μM), or peroxisome proliferator-activator receptor g (PPARg) inhibitor (GW9662, 50 μM) for 1 hour before hypoxia and cell medium containing LPA (100 μM) for 24 h. Cells without any pretreatment and cultured in serum free medium with or without LPA, in hypoxia for 24 h, were used as positive and negative controls, respectively. Results are average±SEM (n=3-6). * Denote statistical significance: *P<0.05, **P<0.01, […].
The biological roles of LPA are diverse and include developmental, physiological, and pathophysiological effects (Lin, M. E., D. R. Herr, and J. Chun, Lysophosphatidic acid (LPA) receptors: signaling properties and disease relevance. Prostaglandins Other Lipid Mediat, 2010. 91(3-4): p. 130-8). To date up to five LPA receptors (LPARs) have been identified: LPA1-LPA5 (Choi, J. W., et al., LPA receptors: subtypes and biological actions. Annu Rev Pharmacol Toxicol, 2010. 50: p. 157-86). The receptors are G protein-coupled receptors (GPCRs) and their presence can be found in multiple tissues. LPA1, LPA2 and LPA3 are widely expressed in most tissues (Ishii, I., et al., Functional comparisons of the lysophosphatidic acid receptors, LP(A1)/VZG-1/EDG-2, LP(A2)/EDG-4, and LP(A3)/EDG-7 in neuronal cell lines using a retrovirus expression system. Mol Pharmacol, 2000. 58(5): p. 895-902). LP4 is expressed in specific organs, such as the pancreas, ovaries and thymus (Lee, C. W., et al., LPA(4)/GPR23 is a lysophosphatidic acid (LPA) receptor utilizing G(s)-, G(q)/G(i)-mediated calcium signaling and G(12/13)-mediated Rho activation. J Biol Chem, 2007. 282(7): p. 4310-7). LPA5 is expressed at low levels in multiple tissues (Lee, C. W., et al., GPR92 as a new G12/13- and Gq-coupled lysophosphatidic acid receptor that increases cAMP, LPA5. J Biol Chem, 2006. 281(33): p. 23589-97). To identify the receptor that is mediating the pro-survival effect of LPA (100 μM), was used Ki16425 (10 μM), an LPA1- and LPA3-specific antagonist, and GW9662 (50 μM), an antagonist of peroxisome proliferator-activator receptor γ (PPAR γ). Studies indicate that LPA has a high affinity by this last receptor (McIntyre, T. M., et al., Identification of an intracellular receptor for lysophosphatidic acid (LPA): LPA is a transcellular PPARgamma agonist. Proc Natl Acad Sci USA, 2003. 100(1): p. 131-6; Gustin, C., M. Van Steenbrugge, and M. Raes, LPA modulates monocyte migration directly and via LPA-stimulated endothelial cells. Am J Physiol Cell Physiol, 2008. 295(4): p. C905-14). This approach was complemented, by inhibiting downstream targets of the receptors including Rho kinase and mitogen-activated protein kinase (MAPK) using Y-2762 (50 μM) and PD98059 (60 μM) antagonists, respectively. It is known that all LPARs couple with and activate G proteins, which in turn activate MAPK (LPA1, LPA2, LPA3 and LPA4) and Rho kinase (LPA1, LPA2, LPA4 and LPA5) (Choi, J. W., et al., LPA receptors: subtypes and biological actions. Annu Rev Pharmacol Toxicol, 2010. 50: p. 157-86). Cells were treated for 1 h in X-Vivo medium containing a specific antagonist followed by culture under hypoxia conditions for 24 h. Cell survival was assessed by FACS analysis after Annexin V/PI staining. […] The number of viable cells decreased from 77% (+LPA) to 67% (P<0.01, n=19). […] Because the two signaling pathways are downstream targets of different LPARs (see above), this might indicate different contributions of LPARs in the survival of CD34+ cells.

Substance: lysophosphatidic acid [LPA]
- secretion of GM-CSF [1]: ~1 pg/mL
- secretion of IL-1 [1]: ~2 pg/mL
- secretion of IL-4 [1]: ~2.7 pg/mL
- secretion of IL-6 [1]: ~2 pg/mL
- secretion of IL-8 [1]: ~17,000 pg/mL
- secretion of TNF-α [1]: ~15 pg/mL
- number of viable cells [2]: ~77%
